According to patent US20250101019A1 (Insilico Medicine IP Limited, priority 2022, published 2025):

Experiments:
ENPP1 [1] = target: T1, ENPP1 (Homo sapiens (Human), UniProt P22413); test: cGAMP-Glo enzymatic assay (2′3′-cGAMP substrate, AMP-Glo readout); assay type: biochemical; conditions: substrate 2′3′-cGAMP; 25° C. for 60 min; 50 mM Tris pH 8.8
Experimental: (§1) Example A: Enzymatic Assay
(§2) • 1. Diluted compounds in DMSO by hand for 11 points, 3 folds dilution. Then transferred 0.02 μL compounds to 384 assay plate by ECHO. • 2. Added 2 μL specified concentration of ENPP1 to 384 assay plate. Centrifuged 1000 RPM for 1 min. • 3. Added 2 μL specified concentration of ATP to the assay plate. Centrifuged 1000 RPM for 1 min. • 4. Incubated at 25° C. for 60 min. • 5. Added 4 μL AMP-Glo Reagent to the assay plates. • 6. Centrifuged 1000 RPM for 1 min, incubate at 25° C. for 1 hours. • 7. Added 8 μL Kinase Detection Reagent to the assay plates. • 8. Centrifuged 1000 RPM for 1 min, incubated at 25° C. for 1 hours. The final assay reaction mixture contained a buffer of 50 mM Tris pH 8.8, 250 mM NaCl and 0.1% BSA • 9. Read on Envision for US LUM as RLU. • 10. Analyzed the raw data using the equation (V. Data analysis). cGAMP-Glo Assay: • 1. Diluted compounds in DMSO by hand for 11 points, 3 folds dilution. Then transferred 0.02 μL compounds to 384 assay plate by ECHO. • 2. Added 2 μL specified concentration of ENPP1 to 384 assay plate, centrifuged 1000 RPM for 1 min. • 3. Added 2 μL specified concentration of 2′3′-cGAMP to the assay plate, centrifuged 1000 RPM for 1 min. • 4. Incubated at 25° C. for 60 min. • 5. Added 4 μL AMP-Glo Reagent to the assay plates. • 6. Centrifuged 1000 RPM for 1 min, incubated at 25° C. for 1 hours. • 7. Added 8 μL Kinase Detection Reagent to the assay plates. • 8. Centrifuged 1000 RPM for 1 min, incubate at 25° C. for 1 hours. The final assay reaction mixture contained a buffer of 50 mM Tris pH 8.8, 250 mM NaCl and 0.1% BSA • 9. Read on Envision for US LUM as RLU. • 10. Analyzed the raw data using the equation (V. Data analysis).

ENPP1 [2] = target: T1, ENPP1; test: ATP-Glo enzymatic assay (ATP substrate, AMP-Glo readout); assay type: biochemical; conditions: 25° C. for 60 min, 50 mM Tris pH 8.8
Experimental: as §1, §2

T1 sequence (P22413 whole entry, species assumed): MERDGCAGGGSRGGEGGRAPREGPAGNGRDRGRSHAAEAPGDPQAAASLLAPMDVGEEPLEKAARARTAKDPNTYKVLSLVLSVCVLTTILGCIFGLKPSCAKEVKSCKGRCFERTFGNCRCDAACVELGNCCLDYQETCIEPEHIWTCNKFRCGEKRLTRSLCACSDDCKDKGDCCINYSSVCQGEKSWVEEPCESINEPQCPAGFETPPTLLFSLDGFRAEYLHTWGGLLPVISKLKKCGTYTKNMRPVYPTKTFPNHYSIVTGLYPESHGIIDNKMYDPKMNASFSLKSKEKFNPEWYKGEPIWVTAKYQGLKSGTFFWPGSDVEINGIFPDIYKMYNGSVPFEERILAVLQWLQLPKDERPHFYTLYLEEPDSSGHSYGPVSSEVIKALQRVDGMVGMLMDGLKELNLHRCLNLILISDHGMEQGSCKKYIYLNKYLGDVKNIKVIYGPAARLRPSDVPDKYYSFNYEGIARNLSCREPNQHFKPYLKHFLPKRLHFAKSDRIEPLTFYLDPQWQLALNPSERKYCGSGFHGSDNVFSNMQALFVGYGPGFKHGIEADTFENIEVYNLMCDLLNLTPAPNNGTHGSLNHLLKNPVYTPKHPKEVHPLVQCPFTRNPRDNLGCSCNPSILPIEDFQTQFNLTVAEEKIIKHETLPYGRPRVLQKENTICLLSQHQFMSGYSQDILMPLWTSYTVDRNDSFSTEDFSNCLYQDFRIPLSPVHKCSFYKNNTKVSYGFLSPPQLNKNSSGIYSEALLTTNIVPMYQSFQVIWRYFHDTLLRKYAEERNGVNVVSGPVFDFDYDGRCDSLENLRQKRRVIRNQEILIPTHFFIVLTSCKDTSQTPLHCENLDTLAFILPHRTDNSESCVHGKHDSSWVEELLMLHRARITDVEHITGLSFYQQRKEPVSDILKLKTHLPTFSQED

| Structure (SMILES) | IC50 (ENPP1 [1]) | IC50 (ENPP1 [2]) |
| --- | --- | --- |
| COc1ncc2c(C)cn(Cc3ccc(S(N)(=O)=O)cc3)c2c1-c1ccccn1 [Example 13, 4-((6-methoxy-3-methyl-7-(pyridin-2-yl)-1H-pyrrolo[3,2-c]pyridin-1-yl)methyl)benzenesulfonamide] | 1 to 10 nM | 1 to 10 nM |
| Cc1cc(Cn2c(C3CC3)nc3cnc(C)c(-c4ccccc4)c32)ccc1S(N)(=O)=O [Example 55, 4-((2-cyclopropyl-6-methyl-7-phenyl-1H-imidazo[4,5-c]pyridin-1-yl)methyl)-2-methylbenzenesulfonamide] | < 1 nM | < 1 nM |
| COc1ncc2nc(C)n(Cc3ccc(S(N)(=O)=O)cc3)c2c1-c1ccccc1 [Example 22, 4-((6-methoxy-2-methyl-7-phenyl-1H-imidazo[4,5-c]pyridin-1-yl)methyl)benzenesulfonamide] | < 1 nM | < 1 nM |
| Cc1ncc2nc(C(F)F)n(Cc3ccc(S(N)(=O)=O)cn3)c2c1-c1ccccc1 [Example 71] | < 1 nM | < 1 nM |
| Cc1ncc(-c2ccccc2)c2c1ncn2Cc1ccc(S(N)(=O)=O)cc1 [Example 30, 4-((4-methyl-7-phenyl-1H-imidazo[4,5-c]pyridin-1-yl)methyl)benzene sulfonamide] | < 1 nM | < 1 nM |
| Cc1ncc2ncn(Cc3ccc(S(N)(=O)=O)cc3)c2c1-c1ccccc1 [Example 29, 4-((6-methyl-7-phenyl-1H-imidazo[4,5-c]pyridin-1-yl)methyl)benzene sulfonamide] | < 1 nM | < 1 nM |
| Cc1ncc2c(C)cn(Cc3c(F)cc(S(N)(=O)=O)cc3F)c2c1-c1ccn(C(F)(F)F)n1 [Example 18, 4-((3,6-dimethyl-7-(1-(trifluoromethyl)-1H-pyrazol-3-yl)-1H-pyrrolo[3,2-c]pyridin-1-yl)methyl)-3,5-difluorobenzenesulfonamide] | 10 to 100 nM | 100 to 1000 nM |
| Cc1ncc2nc(C3CC3)n(Cc3c(F)cc(S(N)(=O)=O)cc3F)c2c1-c1ccccc1 [Example 39, 4-((2-cyclopropyl-6-methyl-7-phenyl-1H-imidazo[4,5-c]pyridin-1-yl)methyl)-3,5-difluorobenzenesulfonamide] | < 1 nM | < 1 nM |
| Cc1ncc2nc(C(F)(F)F)n(Cc3c(F)cc(S(N)(=O)=O)cc3F)c2c1-c1ccccc1 [Example 34, 3,5-difluoro-4-((6-methyl-7-phenyl-2-(trifluoromethyl)-1H-imidazo[4,5-c]pyridin-1-yl)methyl)benzenesulfonamide] | < 1 nM | < 1 nM |
| Cc1ncc2nc(C)n(Cc3c(F)cc(S(N)(=O)=O)cc3F)c2c1-c1ccccc1 [Example 26, 4-((2,6-dimethyl-7-phenyl-1H-imidazo[4,5-c]pyridin-1-yl)methyl)-3,5-difluorobenzenesulfonamide] | < 1 nM | < 1 nM |
| COc1ncc2nc(C)n(Cc3ncc(S(N)(=O)=O)cc3F)c2c1-c1ccccc1 [Example 73, 5-fluoro-6-((6-methoxy-2-methyl-7-phenyl-1H-imidazo[4,5-c]pyridin-1-yl)methyl)pyridine-3-sulfonamide] | < 1 nM | < 1 nM |
| COc1ncc2ccn(Cc3ccc(NS(N)(=O)=O)cc3)c2c1-c1ccn(C)n1 [Example 3, N-(4-((6-methoxy-7-(1-methyl-1H-pyrazol-3-yl)-1H-pyrrolo[3,2-c]pyridin-1-yl)methyl)phenyl) sulfamide] | 100 to 1000 nM | > 1000 nM |
| COc1ncc2nc(C)n(Cc3c(F)cc(S(N)(=O)=O)cc3F)c2c1-c1ccccc1 [Example 24, 3,5-difluoro-4-((6-methoxy-2-methyl-7-phenyl-1H-imidazo[4,5-c]pyridin-1-yl)methyl)benzenesulfonamide] | < 1 nM | < 1 nM |
| COc1ncc2ccn(Cc3c(F)cc(S(N)(=O)=O)cc3F)c2c1-c1ccn(C)n1 [Example 7, 3,5-difluoro-4-((6-methoxy-7-(1-methyl-1H-pyrazol-3-yl)-1H-pyrrolo[3,2-c]pyridin-1-yl)methyl)benzenesulfonamide] | 1 to 10 nM | 1 to 10 nM |
| Cc1ncc2nc(C3CC3)n(Cc3ccc(S(N)(=O)=O)nc3)c2c1-c1ccccc1 [Example 54, 5-((2-cyclopropyl-6-methyl-7-phenyl-1H-imidazo[4,5-c]pyridin-1-yl)methyl)pyridine-2-sulfonamide] | < 1 nM | < 1 nM |
| [2H]C([2H])([2H])c1nc2cnc(C)c(-c3ccccc3)c2n1Cc1c(F)cc(S(N)(=O)=O)cc1F [Example 42, 3,5-difluoro-4-((6-methyl-2-(methyl-d3)-7-phenyl-1H-imidazo[4,5-c]pyridin-1-yl)methyl)benzenesulfonamide] | < 1 nM | < 1 nM |
| Cc1ncc2nc(C)n(Cc3c(F)cc(S(N)(=O)=O)cc3F)c2c1-c1ccccc1F [Example 44, 3,5-difluoro-4-((7-(2-fluorophenyl)-2,6-dimethyl-1H-imidazo[4,5-c]pyridin-1-yl)methyl)benzenesulfonamide] | < 1 nM | < 1 nM |
| Cc1ncc2nc(C(F)F)n(Cc3c(F)cc(S(N)(=O)=O)cc3F)c2c1-c1ccccc1 [Example 38, 4-((2-(difluoromethyl)-6-methyl-7-phenyl-1H-imidazo[4,5-c]pyridin-1-yl)methyl)-3,5-difluorobenzenesulfonamide] | < 1 nM | < 1 nM |
| Cc1ccccc1-c1c(C)ncc2ncn(Cc3c(F)cc(S(N)(=O)=O)cc3F)c12 [Example 28, 3,5-difluoro-4-((6-methyl-7-(o-tolyl)-1H-imidazo[4,5-c]pyridin-1-yl)methyl)benzene sulfonamide] | 10 to 100 nM | 10 to 100 nM |
| Cc1ncc2nc(C3CC3)n(Cc3ccc(S(N)(=O)=O)cn3)c2c1-c1ccccc1 [Example 53, 6-((2-cyclopropyl-6-methyl-7-phenyl-1H-imidazo[4,5-c]pyridin-1-yl)methyl)pyridine-3-sulfonamide] | < 1 nM | < 1 nM |
| Cc1ncc2ccn(Cc3ccc(NS(N)(=O)=O)cc3)c2c1-c1ccn(C)n1 [Example 2, N-(4-((6-methyl-7-(1-methyl-1H-pyrazol-3-yl)-1H-pyrrolo[3,2-c]pyridin-1-yl)methyl)phenyl) sulfamide] | 100 to 1000 nM | > 1000 nM |
| CCc1ncc2nc(C)n(Cc3c(F)cc(S(N)(=O)=O)cc3F)c2c1-c1ccccc1 [Example 48, 4-((6-ethyl-2-methyl-7-phenyl-1H-imidazo[4,5-c]pyridin-1-yl)methyl)-3,5-difluorobenzenesulfonamide] | < 1 nM | < 1 nM |
| COc1ncc2nc(C)n(C(C)c3ccc(S(N)(=O)=O)cc3)c2c1-c1ccccc1 (stereo not shown) [Example 35, 4-(1-(6-methoxy-2-methyl-7-phenyl-1H-imidazo[4,5-c]pyridin-1-yl)ethyl) benzenesulfonamide] | 1 to 10 nM | 1 to 10 nM |
| COc1ncc2c(c1-c1ccccc1)n(Cc1ccc(S(N)(=O)=O)cn1)c(=O)n2C [Example 82, 6-((6-methoxy-3-methyl-2-oxo-7-phenyl-2,3-dihydro-1H-imidazo[4,5-c]pyridin-1-yl)methyl)pyridine-3-sulfonamide] | < 1 nM | < 1 nM |
| COc1ncc2c(c1-c1ccccc1)n(Cc1ncc(S(N)(=O)=O)cc1F)c(=O)n2C [Example 80, 5-fluoro-6-((6-methoxy-3-methyl-2-oxo-7-phenyl-2,3-dihydro-1H-imidazo[4,5-c]pyridin-1-yl)methyl)pyridine-3-sulfonamide] | < 1 nM | < 1 nM |
| Cc1nc2cncc(-c3ccccc3)c2n1Cc1c(F)cc(S(N)(=O)=O)cc1F [Example 43, 3,5-difluoro-4-((2-methyl-7-phenyl-1H-imidazo[4,5-c]pyridin-1-yl)methyl)benzenesulfonamide] | < 1 nM | < 1 nM |
| Cc1ncc2nc(C)n(Cc3ccc(S(N)(=O)=O)cc3)c2c1-c1ccccc1 [Example 31, 4-((2,6-dimethyl-7-phenyl-1H-imidazo[4,5-c]pyridin-1-yl)methyl)benzene sulfonamide] | < 1 nM | < 1 nM |
| Cc1ncc2c(C)cn(Cc3c(F)cc(S(N)(=O)=O)cc3F)c2c1-c1ccccc1 [Example 14, 4-[(3,6-dimethyl-7-phenylpyrrolo[3,2-c]pyridin-1-yl)methyl]-3,5-difluorobenzene-1-sulfonamide] | < 1 nM | < 1 nM |
| Cc1ncc2nc(CF)n(Cc3c(F)cc(S(N)(=O)=O)cc3F)c2c1-c1ccccc1 [Example 47, 3,5-difluoro-4-((2-(fluoromethyl)-6-methyl-7-phenyl-1H-imidazo[4,5-c]pyridin-1-yl)methyl)benzenesulfonamide] | < 1 nM | < 1 nM |
